# Laboratory results from paper PMC3298089 (Journal of Medicinal Chemistry, 2012).
# Assays:
# [1] = system: AKR1C3 mediated production of testosterone in LNCaP-AKR1C3 cells; experiment: LNCaP-AKR1C3 mediated formation of testosterone from [14C]-Δ4-AD; assay type: cell-based, human; conditions: 10 μM inhibitor, 0.1 μM [14C]-Δ4-AD, 48 h, relative to control
# [2] = target: T1, AKR1C3 (Homo sapiens, UniProt P42330); experiment: Inhibition of NADP+ dependent oxidation of S-tetralol catalyzed by AKR1C3; assay type: biochemical
# T1 sequence (P42330 1-323): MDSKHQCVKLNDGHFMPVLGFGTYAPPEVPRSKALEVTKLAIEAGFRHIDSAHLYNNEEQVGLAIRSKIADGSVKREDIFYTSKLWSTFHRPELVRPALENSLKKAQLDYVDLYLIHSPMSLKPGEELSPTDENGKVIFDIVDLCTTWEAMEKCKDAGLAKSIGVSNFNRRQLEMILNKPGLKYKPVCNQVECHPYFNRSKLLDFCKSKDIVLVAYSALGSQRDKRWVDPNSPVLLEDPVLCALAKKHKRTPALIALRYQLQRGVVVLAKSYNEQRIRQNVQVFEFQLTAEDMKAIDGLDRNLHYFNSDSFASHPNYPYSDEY
# [3] = target: T2, AKR1C2 (Homo sapiens, UniProt P52895); experiment: Inhibition of NADP+ dependent oxidation of S-tetralol catalyzed by AKR1C2; assay type: biochemical; conditions: selectivity for AKR1C3; high value = high selectivity
# T2 sequence (P52895 1-323): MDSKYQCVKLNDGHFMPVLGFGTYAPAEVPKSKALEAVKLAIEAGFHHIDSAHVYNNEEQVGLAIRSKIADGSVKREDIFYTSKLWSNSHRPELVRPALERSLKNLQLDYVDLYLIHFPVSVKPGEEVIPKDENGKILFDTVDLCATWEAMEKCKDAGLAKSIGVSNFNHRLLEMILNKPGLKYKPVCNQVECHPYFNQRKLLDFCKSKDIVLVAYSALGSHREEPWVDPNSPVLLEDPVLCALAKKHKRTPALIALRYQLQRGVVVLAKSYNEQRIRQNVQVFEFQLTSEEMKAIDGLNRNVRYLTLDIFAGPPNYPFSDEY
IC50 [2],Ratio IC50 1C2:1C3 [3],Compound,also measured
,>24,"O=C(O)c1ccc(Nc2cccc([N+](=O)[O-])c2)cc1 [Compound 5d, 4-((3-nitrophenyl)amino)benzoic acid]",
,>25,O=C(O)c1ccc(Nc2ccc(Br)cc2)cc1 [Compound 5l],

# Second part, the compound before the results:
Compound,IC50 [2],Ratio IC50 1C2:1C3 [3],also measured
CC(=O)c1ccc(Nc2cccc(C(=O)O)c2)c(C(=O)O)c1 [Compound 4w],,,inhibition of testosterone production in LNCaP-AKR1C3 cells [1]: Almost identical results
O=C(O)c1cccc(Nc2ccc([N+](=O)[O-])cc2)c1 [Compound 4m],33 nM,,
O=C(O)c1cccc(Nc2cccc(C(=O)O)c2)c1 [Compound 4l],,>28.0,
CC(C)(C)c1ccc(Nc2ccccc2C(=O)O)cc1 [Compound 1o],38 nM,,
